Measured values taken from US9999655B2, “Use of MKS inhibitor peptide-containing compositions for treating non-small cell lung cancer with same” (Moerae Matrix, Inc., priority 2015, dated 2018).
Where no end group is shown, it is not given here.

Legend:
[1] = system: 266 human kinases; format: biochemical; conditions: peptide at 100 μM, 266 human kinases
Method: (§1) Every kinase activity measurement was conducted in duplicate.
(§2) IC50 (half maximal inhibitory concentrations) value for the MK2 inhibitor peptides identified below was determined using Millipore's IC50 Profiler Express service. […] Specifically, in these assays, a positively charged substrate is phosphorylated with a radiolabeled phosphate group from an ATP if the kinase is not inhibited by an inhibitor peptide. The positively charged substrate then is attracted to a negatively charged filter membrane, quantified with a scintillation counter, and compared to a 100% activity control.

[2] = biological target: Ca2+/calmodulin-dependent protein kinase II (CaMKII); conditions: cited from earlier work
[3] = biological target: (Homo sapiens, UniProt Q15746); format: biochemical; conditions: MLCK(h); peptide 100 μM
Method: as §1, §2

[4] = biological target: Calcium/Calmodulin-Dependent Protein Kinase I (CaMKI) (Homo sapiens, UniProt Q14012); assay: biochemical; conditions: read-out: inhibition of kinase activity of CaMKI
Method: as §1, §2

[5] = system: advanced NSCLC; conditions: patients with advanced NSCLC; P=0.04; cited from earlier work

(Homo sapiens, UniProt Q15746), sequence (Q15746 whole entry): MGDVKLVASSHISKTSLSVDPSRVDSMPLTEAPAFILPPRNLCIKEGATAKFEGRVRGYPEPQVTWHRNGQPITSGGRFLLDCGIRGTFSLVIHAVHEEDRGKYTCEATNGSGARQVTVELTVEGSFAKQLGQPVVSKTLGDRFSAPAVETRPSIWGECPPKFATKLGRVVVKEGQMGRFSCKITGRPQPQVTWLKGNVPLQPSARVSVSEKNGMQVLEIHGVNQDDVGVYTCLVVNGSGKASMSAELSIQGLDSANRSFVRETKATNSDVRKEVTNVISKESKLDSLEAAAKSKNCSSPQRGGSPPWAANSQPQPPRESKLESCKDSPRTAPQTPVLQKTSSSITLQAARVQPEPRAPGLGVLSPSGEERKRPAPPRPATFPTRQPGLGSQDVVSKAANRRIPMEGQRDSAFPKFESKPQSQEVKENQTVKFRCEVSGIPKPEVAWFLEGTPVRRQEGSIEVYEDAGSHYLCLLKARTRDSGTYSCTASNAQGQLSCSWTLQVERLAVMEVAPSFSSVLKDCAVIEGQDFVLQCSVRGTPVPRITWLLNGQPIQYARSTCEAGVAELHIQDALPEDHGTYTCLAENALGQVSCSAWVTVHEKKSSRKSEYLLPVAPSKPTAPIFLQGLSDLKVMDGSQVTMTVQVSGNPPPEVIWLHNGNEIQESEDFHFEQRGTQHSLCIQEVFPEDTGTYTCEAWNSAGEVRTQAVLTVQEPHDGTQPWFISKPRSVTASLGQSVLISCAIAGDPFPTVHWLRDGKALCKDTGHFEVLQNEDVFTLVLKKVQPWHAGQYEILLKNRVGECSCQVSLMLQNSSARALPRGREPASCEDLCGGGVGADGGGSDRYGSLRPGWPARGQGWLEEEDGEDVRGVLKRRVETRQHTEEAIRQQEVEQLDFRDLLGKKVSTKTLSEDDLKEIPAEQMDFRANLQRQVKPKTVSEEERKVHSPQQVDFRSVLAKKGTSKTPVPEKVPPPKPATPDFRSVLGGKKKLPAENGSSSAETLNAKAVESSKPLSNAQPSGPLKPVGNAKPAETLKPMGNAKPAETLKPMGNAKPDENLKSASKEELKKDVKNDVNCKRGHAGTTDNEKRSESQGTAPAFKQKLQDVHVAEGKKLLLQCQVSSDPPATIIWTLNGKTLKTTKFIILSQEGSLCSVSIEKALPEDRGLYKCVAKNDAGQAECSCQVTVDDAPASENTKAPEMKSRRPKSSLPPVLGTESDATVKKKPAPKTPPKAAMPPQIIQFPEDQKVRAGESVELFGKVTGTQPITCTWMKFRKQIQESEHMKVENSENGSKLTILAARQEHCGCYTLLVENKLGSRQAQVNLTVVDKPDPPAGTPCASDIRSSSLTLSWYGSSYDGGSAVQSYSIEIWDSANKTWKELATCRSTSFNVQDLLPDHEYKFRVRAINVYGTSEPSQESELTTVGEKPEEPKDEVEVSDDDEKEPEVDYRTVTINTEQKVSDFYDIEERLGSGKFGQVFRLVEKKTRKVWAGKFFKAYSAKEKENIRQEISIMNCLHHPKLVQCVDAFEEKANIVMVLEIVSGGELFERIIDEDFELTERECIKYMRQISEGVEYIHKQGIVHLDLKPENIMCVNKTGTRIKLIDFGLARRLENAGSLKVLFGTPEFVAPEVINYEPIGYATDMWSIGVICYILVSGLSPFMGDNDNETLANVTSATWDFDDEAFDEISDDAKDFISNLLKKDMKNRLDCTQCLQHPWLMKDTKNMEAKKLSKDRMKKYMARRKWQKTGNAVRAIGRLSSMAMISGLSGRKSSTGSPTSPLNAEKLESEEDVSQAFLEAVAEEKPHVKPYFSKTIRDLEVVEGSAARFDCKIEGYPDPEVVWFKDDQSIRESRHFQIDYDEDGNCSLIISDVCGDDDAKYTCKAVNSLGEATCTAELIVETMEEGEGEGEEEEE
Calcium/Calmodulin-Dependent Protein Kinase I (CaMKI), sequence (Q14012 whole entry): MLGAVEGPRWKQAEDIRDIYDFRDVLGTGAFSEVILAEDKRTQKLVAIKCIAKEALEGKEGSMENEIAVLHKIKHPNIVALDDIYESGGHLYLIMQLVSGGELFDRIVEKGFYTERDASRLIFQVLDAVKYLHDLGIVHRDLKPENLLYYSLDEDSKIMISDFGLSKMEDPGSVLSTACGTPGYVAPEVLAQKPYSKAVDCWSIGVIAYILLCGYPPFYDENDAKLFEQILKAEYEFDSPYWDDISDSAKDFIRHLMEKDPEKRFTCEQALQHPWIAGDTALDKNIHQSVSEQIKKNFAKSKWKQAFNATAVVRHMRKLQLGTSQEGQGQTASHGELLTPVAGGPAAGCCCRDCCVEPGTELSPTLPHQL

| Substance | off-target kinase inhibition (specificity) [1] | other results |
| --- | --- | --- |
| FAKLAARLYRKALARQLGVAA [MMI-0300] | very limited off-target kinase inhibition | – |
| autocamtide-2 related inhibitory peptide [AIP] | – | IC50 [2]: 100 nM |
| YARAAARQARAKALARQLGVAA [MMI-0100] | – | % activity [3]: 85%; inhibition at 100 µM [4]: > 65% |
| cisplatin/vinorelbine | – | overall survival [5]: 10.1 months |
| YARAAARQARAKALNRQLGVA (Mammalian) [MMI-0200] | very limited off-target kinase inhibition | – |
| KAFAKLAARLYRKALARQLGVAA [MMI-0400] | very limited off-target kinase inhibition | – |
| HRRIKAWLKKIKALARQLGVAA (Mammalian) [MMI-0500] | very limited off-target kinase inhibition | – |
